# Data: patent US20090197947A1, “MEDICAMENTS AND METHODS FOR LOWERING PLASMA LIPID LEVELS AND SCREENING DRUGS” (The Research Foundation of State University of New York, priority 2008, published 2009)
# What was measured:
# [1] = Effect of efflux enhancer and cholesterol biosynthesis inhibitor on hepatic mRNA, MTP activity and lipid levels in PBS and pIpC injected animals; type: in vivo; conditions: liver of drug administered pIpC injected mice
# Source text: In this Example, total RNA was isolated from the liver of drug administered PBS and pIpC injected mice and used for quantitative RT-PCR of HMG-CoA reductase (FIG. 5, Panel A), ABCA1 (FIG. 5, Panel B), MTP (FIG. 5, Panel C) as well as ARPp0 mRNA. The ratio of candidate gene to ARPp0 in one PBS injected mice was used for normalization. Liver tissues were also used to measure MTP activity (FIG. 5, Panel D). In addition, triglyceride (FIG. 5, Panel E), total (FIG. 5, Panel F), Free (FIG. 5, Panel G) and Esterified (FIG. 5, Panel H) cholesterol levels were measured. (*, p<0.05, **, p<0.01, ***, p<0.001.)
# [2] = Effect of efflux enhancer and cholesterol biosynthesis inhibitor on plasma lipids and liver function enzymes in PBS and pIpC injected animals; type: in vivo, mice; conditions: 50 mg/Kg oral gavage every day for 2 weeks; for plasma cholesterol levels / plasma triglyceride levels: MTP gene deleted (pIpC injected) mice
# Source text: In this Example, blood was collected from tail vein of animals on day 1 of the experiment and used to measure plasma lipid and liver function enzyme levels (Day 1, “Control”). Conditional MTP deletion was achieved by injecting pIpC three times in […] mice on alternate days. Control group mice (n=2) received either PBS (open bars) or pIpC (closed bars) injections. […] On day 8, blood was again collected to measure changes in plasma lipid and liver function enzyme levels. Mice were sacrificed on day 16 and plasma samples were then assayed for total cholesterol (A), triglyceride (B), ALT (C) and AST (D) levels. Each measurement was performed in triplicate. The asterisks show statistically significant differences between PBS and pIpC injected mice. (*, p<0.05, **, p<0.01, ***, p<0.001.)
# [3] = test system: AC29 cells that do not express MTP but stably express ACAT1 or ACAT2; experiment: Cellular cholesteryl ester synthesis in AC29 cells that do not express MTP; type: cell-based; conditions: AC29 cells stably expressing ACAT1 or ACAT2
# Experimental: Next, the effect of these inhibitors on cellular cholesteryl ester synthesis was examined. […] In these cells, MTP inhibitor BMS 197636 had no effect on cellular cholesteryl ester synthesis (FIG. 9, J and K). However, incubation of these cells with ACAT inhibitor 148817 reduced radio-labeled cholesteryl esters by 83-87% (FIG. 9, J, K).
# Caco-2 cells = Caco-2 cells treated with MTP and ACAT antagonists, alone or in combination; type: cell-based; design: inhibition of cellular esterification of [3H] cholesterol: dose or concentration left out as unconfirmed
# Experimental: Thus, it was hypothesized that MTP (BMS 197636) and ACAT (1 488 17) antagonists would inhibit cellular esterification by independent mechanisms and their effect would be additive. To test this hypothesis, Caco-2 cells were treated with different amounts of these inhibitors, alone or in combination, and the inhibition was compared with cells that were not exposed to any inhibitors (FIG. 9, L-N). Increasing concentrations of BMS 197636 decreased apoB secretion (FIG. 9, L). In contrast, ACAT inhibitor had no effect on apoB secretion. […] ApoAI secretion was resistant to both the inhibitors (FIG. 9, M). […] These inhibitors in combination reduced cholesteryl ester synthesis by 45 +/−4% (FIG. 9, N). Thus, MTP and ACAT act in tandem and facilitate cellular cholesteryl esterification.
smiles,measurement,setting,value
O=S(=O)(c1ccccc1)N(CC(F)(F)F)c1ccc(C(O)(C(F)(F)F)C(F)(F)F)cc1 [T0901317],increases in hepatic free cholesterol levels in MTP gene deleted animals,[1],reduced
same,plasma cholesterol levels,[2],not significantly altered
same,plasma triglyceride levels,[2],not significantly altered
"CC[C@H](C)C(=O)O[C@H]1C[C@@H](C)C=C2C=C[C@H](C)[C@H](CC[C@@H]3C[C@@H](O)CC(=O)O3)[C@H]21 [lovastatin, Lovastatin]",increases in hepatic free cholesterol levels in MTP gene deleted animals,[1],reduced
same,plasma cholesterol levels,[2],not significantly altered
same,plasma triglyceride levels,[2],not significantly altered
same,increase in plasma ALT levels due to MTP gene deletion,[2]; pIpC injected mice,not seen
same,increase in plasma AST levels due to MTP gene deletion,[2]; pIpC injected mice,not seen
CCCNC(=O)C1(CCCCN2CCC(N3Cc4ccccc4C3=O)CC2)c2ccccc2-c2ccccc21 [BMS 197636],cellular cholesteryl ester synthesis,[3],no effect
same,ApoAI secretion,Caco-2 cells,resistant
same,apoB secretion,"Caco-2 cells; increasing concentrations, inhibitor alone",decreased
same,inhibition of cellular esterification of [3H] cholesterol,Caco-2 cells; individually,25 +/−2%
CCCCCCCCCCCCCCCC(=O)O[C@H]1CC[C@@]2(C)C(=CC[C@H]3[C@@H]4CC[C@H]([C@H](C)CCCC(C)C)[C@@]4(C)CC[C@@H]32)C1 [cholesteryl palmitate],concentration up to which microsomes are enriched with cholesterol (saturation thereafter),"liver microsomes; liver microsomes incubated 30 min, centrifuged",approximately 1.25 μM
same,inhibition of cholesteryl ester synthesis,"liver microsomes; liver microsomes, 0.5 μM cholesteryl palmitate",32%
